Reference: patent US11897904B2, “Herbicidally active bicyclic benzamides” (Bayer Aktiengesellschaft, priority 2017, dated 2024)

Legend:
MATIN = assay: Pre-emergence herbicidal action; type: in vivo, Matricaria inodora; details: pre-emergence comparative experiment, 320 g/ha
From the text: (§1) 1. Pre-Emergence Herbicidal Action and Crop Plant Compatibility
(§2) Seeds of monocotyledonous and dicotyledonous weed plants and crop plants are placed in plastic or organic planting pots and covered with soil. The compounds of the invention, formulated in the form of wettable powders (WP) or as emulsion concentrates (EC), are then applied onto the surface of the covering soil as aqueous suspension or emulsion with addition of 0.5% additive at a water application rate of 600 l/ha (converted). After the treatment, the pots are placed in a greenhouse and kept under good growth conditions for the trial plants. After about 3 weeks, the effect of the preparations is scored visually in comparison with untreated controls as percentages. The tables below show the herbicidal activity of numerous compounds according to the invention against important harmful plants. For example, 100% activity=the plants have died, 0% activity=like control plants.

ALOMY [1] = assay: Post-emergence herbicidal action; type: in vivo, Alopecurus myosuroides; details: post-emergence comparative experiment, 80 g/ha
Protocol: (§3) 2. Post-Emergence Herbicidal Action and Crop Plant Compatibility
(§4) Seeds of monocotyledonous and dicotyledonous weeds and crop plants are placed in sandy loam in plastic or organic planting pots, covered with soil and cultivated in a greenhouse under controlled growth conditions. 2 to 3 weeks after sowing, the test plants are treated at the one-leaf stage. The compounds of the invention, formulated in the form of wettable powders (WP) or as emulsion concentrates (EC), are then sprayed onto the green parts of the plants as aqueous suspension or emulsion with addition of 0.5% additive at a water application rate of […] (converted). After the test plants had been kept in the greenhouse under optimum growth conditions for about 3 weeks, the activity of the preparations is rated visually in comparison to untreated controls. The tables below show the herbicidal activity of numerous compounds according to the invention against important harmful plants. For example, 100% activity=the plants have died, 0% activity=like control plants.

numerous harmful plants [2] = assay: Post-emergence comparative experiment, herbicidal activity; type: in vivo
Protocol: as §4, with “control plants. In a comparative experiment, by way of example, the herbicidal activity of compound No. 2-53 according to the invention was compared to that of compound No. A-117 known from WO 2013/076315 A2.” for “control plants.”

ALOMY [3] = assay: Pre-emergence herbicidal action; type: in vivo, Alopecurus myosuroides; details: pre-emergence comparative experiment, 320 g/ha
From the text: as §1, §2

LOLMU = assay: Post-emergence herbicidal action; type: in vivo, Lolium multiflorum; details: post-emergence comparative experiment, 80 g/ha
Protocol: as §3, §4

AVEFA [4] = assay: Pre-emergence herbicidal action; type: in vivo, Avena fatua; details: pre-emergence comparative experiment, 320 g/ha
From the text: as §1, §2

AVEFA [5] = assay: Post-emergence herbicidal action; type: in vivo, Avena fatua; details: post-emergence comparative experiment, 80 g/ha
Protocol: as §3, §4

ABUTH [6] = assay: Post-emergence herbicidal action; type: in vivo, Abutilon theophrasti; details: post-emergence comparative experiment, 80 g/ha
Protocol: as §3, §4

POLCO = assay: Post-emergence herbicidal action; type: in vivo, Polygonum convolvulus; details: post-emergence comparative experiment, 80 g/ha
Protocol: as §3, §4

ABUTH [7] = assay: Pre-emergence herbicidal action; type: in vivo, Abutilon theophrasti; details: pre-emergence comparative experiment, 320 g/ha
From the text: as §1, §2

numerous harmful plants [8] = assay: Pre-emergence comparative experiment, herbicidal activity; type: in vivo
From the text: as §2, with “control plants. In a comparative experiment, by way of example, the herbicidal activity of compound No. 2-53 according to the invention was compared to that of compound No. A-117 known from WO 2013/076315 A2.” for “control plants.”

SETVI = assay: Pre-emergence herbicidal action; type: in vivo, Setaria viridis; details: pre-emergence comparative experiment, 320 g/ha
From the text: as §1, §2

## Cn1nnnc1NC(=O)c1ccc(C(F)(F)F)c2c1OCS2 [Example 2-53, 4-(trifluoromethyl)-1,3-benzoxathiolane-N-(1-methyltetrazol-5-yl)-7-carboxamide]
MATIN
  Herbicidal action against MATIN: 90%
ALOMY [1]
  Herbicidal action against ALOMY: 80%
Numerous harmful plants [2]
  herbicidal activity compared to that of compound No. A-117: superiority
ALOMY [3]
  Herbicidal action against ALOMY: 30%
LOLMU
  Herbicidal action against LOLMU: 70%
AVEFA [4]
  Herbicidal action against AVEFA: 60%
AVEFA [5]
  Herbicidal action against AVEFA: 100%
ABUTH [6]
  Herbicidal action against ABUTH: 80%
POLCO
  Herbicidal action against POLCO: 80%
ABUTH [7]
  Herbicidal action against ABUTH: 90%
Numerous harmful plants [8]
  herbicidal activity compared to that of compound No. A-117: superiority
SETVI
  Herbicidal action against SETVI: 80%
